Laboratory results from ChEMBL document CHEMBL1201862, “PubChem BioAssay data set” (2004).
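Where inhibition never reached the appropriate level, the endpoint shown equals the highest concentration tested. Otherwise, values were interpolated linearly from a five-concentration, 48-hour dose response in 96-well plates. GI50 marks 50% less growth.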 The source made the active and inactive calls. No stated cut-off is given here; in the data, active = GI50 up to about 1.1 µM and inactive = higher.

Legend:
Test in all cases: growth of human tumour cells (NCI), 48 h
[1] = tested on: 786-0
[2] = tested on: A549
[3] = tested on: ACHN
[4] = tested on: COLO 205
[5] = tested on: HCC 2998
[6] = tested on: Hs-578T
[7] = tested on: IGROV-1
[8] = tested on: K562
[9] = tested on: M14
[10] = tested on: MDA-MB-231
[11] = tested on: MOLT-4
[12] = tested on: NCI-H226
[13] = tested on: NCI/ADR-RES
[14] = tested on: OVCAR-5
[15] = tested on: SF-268
[16] = tested on: SK-MEL-28
[17] = tested on: SN12C
[18] = tested on: SNB-75
[19] = tested on: SW-620
[20] = tested on: UO-31

How did the GI50 [1] turn out when `O=c1c(-c2nc3ccccc3c3ccccc3c2=O)nc2ccccc2c2ccccc12` was run?
The GI50 was 36 µM (inactive).

And the GI50 [2]?
The GI50 was 48 µM (inactive).

What about the GI50 [3] of the same compound?
Its GI50 is 36.1 µM (inactive).

And the GI50 [4]?
Its GI50 is 38.4 µM (inactive).

And the GI50 [5]?
Its GI50 is 21.9 µM (inactive).

And the GI50 [6]?
The GI50 was 51.4 µM (inactive).

What about the GI50 [7] of the same compound?
The GI50 was 44.9 µM (inactive).

What about the GI50 [8] of the same compound?
The GI50 was 32.9 µM (inactive).

And the GI50 [9]?
The GI50 was 35.2 µM (inactive).

What about the GI50 [10] of the same compound?
The GI50 was 34 µM (inactive).

What about the GI50 [11] of the same compound?
Its GI50 is 34.6 µM (inactive).

What about the GI50 [12] of the same compound?
The GI50 was > 100 µM (inactive).

And the GI50 [13]?
The GI50 was 34 µM (inactive).

And the GI50 [14]?
Its GI50 is 80.4 µM (inactive).

And the GI50 [15]?
The GI50 was 41 µM (inactive).

What about the GI50 [16] of the same compound?
Its GI50 is 55.5 µM (inactive).

What about the GI50 [17] of the same compound?
Its GI50 is 28.6 µM (inactive).

And the GI50 [18]?
The GI50 was 32.1 µM (inactive).

What about the GI50 [19] of the same compound?
Its GI50 is 33.7 µM (inactive).

And the GI50 [20]?
Its GI50 is 90.2 µM (inactive).

What does the source list for `COc1ccc(OC2OC(CO)C(OCc3ccccc3)C(OCc3ccccc3)C2OCc2ccccc2)cc1` (stereo not given)?
GI50 [1]: 39.5 µM (inactive); GI50 [2]: 11.1 µM (inactive); GI50 [3]: 31.6 µM (inactive); GI50 [4]: 44.4 µM (inactive); GI50 [5]: > 100 µM (inactive); GI50 [6]: 56.9 µM (inactive); GI50 [7]: > 100 µM (inactive); GI50 [8]: 6.1 µM (inactive); GI50 [9]: > 100 µM (inactive); GI50 [10]: > 100 µM (inactive); GI50 [11]: 2.02 µM (inactive); GI50 [12]: > 100 µM (inactive); GI50 [13]: 61.9 µM (inactive); GI50 [14]: > 100 µM (inactive); GI50 [15]: 22.3 µM (inactive); GI50 [16]: > 100 µM (inactive); GI50 [17]: 17.5 µM (inactive); GI50 [18]: 11.3 µM (inactive); GI50 [19]: > 100 µM (inactive); GI50 [20]: 41 µM (inactive)

`C=C(C)[C@@]12C[C@H](OC(=O)[C@H](O)[C@@H](NC(=O)c3ccccc3)c3ccccc3)C(C)=C1[C@@H](OC(C)=O)C(=O)[C@@]1(C)C([C@@H]2OC(=O)c2cc(F)cc(F)c2)C2(OC(C)=O)CO[C@@H]2C[C@@H]1O` (stereo not given in full) was tested. Which GI50 [1] did it give?
Its GI50 is 0.0853 µM (active).

And the GI50 [2]?
Its GI50 is 0.0752 µM (active).

And the GI50 [3]?
The GI50 was 0.555 µM (active).

What about the GI50 [4] of the same compound?
The GI50 was 0.0789 µM (active).

What about the GI50 [5] of the same compound?
Its GI50 is 0.0668 µM (active).

What about the GI50 [6] of the same compound?
Its GI50 is 0.0186 µM (active).

What about the GI50 [7] of the same compound?
Its GI50 is 0.361 µM (active).

And the GI50 [8]?
Its GI50 is 0.0361 µM (active).

And the GI50 [9]?
Its GI50 is 0.141 µM (active).

What about the GI50 [10] of the same compound?
The GI50 was 0.21 µM (active).

And the GI50 [11]?
The GI50 was 0.0428 µM (active).

What about the GI50 [12] of the same compound?
The GI50 was 0.883 µM (active).

What about the GI50 [13] of the same compound?
Its GI50 is 1.57 µM (inactive).

What about the GI50 [14] of the same compound?
Its GI50 is 0.165 µM (active).

What about the GI50 [15] of the same compound?
Its GI50 is 0.161 µM (active).

What about the GI50 [16] of the same compound?
Its GI50 is 0.363 µM (active).

What about the GI50 [17] of the same compound?
Its GI50 is 0.144 µM (active).

And the GI50 [18]?
Its GI50 is 0.0966 µM (active).

And the GI50 [19]?
The GI50 was 0.0505 µM (active).

And the GI50 [20]?
Its GI50 is 0.973 µM (active).
